The values below come from PubChem BioAssay (NCI).

Structures are written as SMILES.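 All cell lines were grown in 96-well plates and treated with compound for 48 hours. GI50 marks 50% less growth. TGI is the concentration that stops growth completely.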

Common to all, as to assay: inhibition of tumour cell growth, NCI panel, 48 h
Experiment [1] has as its system A549 NSCLC.
The test system of experiment [2] is CAKI-1 renal.
In experiment [3] the test system is K-562 leukemia.
The test system of experiment [4] is SK-MEL-5 melanoma.
For experiment [5], the system named is NCI-H460 lung.
The subject of experiment [6] is KM12 colon.
In experiment [7] the test system is SNB-19 CNS.
The test system of experiment [8] is LOX IMVI melanoma.

On to `O=C(N/C(=C\c1cccc([N+](=O)[O-])c1)c1nc2ccccc2[nH]1)c1ccccc1`, for which the TGI in experiment [1], in experiment [2], in experiment [3], in experiment [4], in experiment [5] and in experiment [6] was over 100 µM throughout. This molecule also displayed a TGI in experiment [7] of over 100 µM.

Take `NC1CCCCC1N.O=C1C=C/C(=C(/c2ccc(O)c(Br)c2)c2ccccc2S(=O)(=O)[O-])C=C1Br.O=C1C=C/C(=C(/c2ccc(O)c(Br)c2)c2ccccc2S(=O)(=O)[O-])C=C1Br.[Pt+4]`: the GI50 in experiment [1] is 2.42 µM; in experiment [3], 8.79 µM; in experiment [4], 3.29 µM; in experiment [5], 1.54 µM; in experiment [6], 32.6 µM; in experiment [7], 7.14 µM. The GI50 in experiment [8] was 3.18 µM. The TGI in experiment [1] is over 100 µM; in experiment [3] it was over 100 µM; in experiment [4], 21.4 µM; in experiment [5], over 100 µM; in experiment [6], over 100 µM; in experiment [7], over 100 µM. This molecule also displayed a TGI in experiment [8] of over 100 µM.

Take `Cc1ccc(/C=C(\NC(=O)c2ccccc2)c2nc3ccccc3[nH]2)cc1`: the TGI in experiment [1] was over 100 µM; in experiment [4], 36.7 µM; in experiment [5], over 100 µM; in experiment [6], over 100 µM; in experiment [7], over 100 µM.

Take `CC(=O)OCCOCNC(=S)N/N=C/c1cc([N+](=O)[O-])ccc1O`: the TGI in experiment [1], in experiment [3], in experiment [4], in experiment [5], in experiment [6] and in experiment [7] was over 100 µM in each case. In experiment [8], this molecule had a TGI of over 100 µM.

In the case of `CC(C)(C)C(=O)Nc1cccc2oc(-c3ccccc3)cc12`, the TGI in experiment [1], in experiment [2], in experiment [3], in experiment [5], in experiment [6] and in experiment [7] was over 100 µM each time.

For `O=C(OCCCl)C1OC(n2cc(F)c(=O)[nH]c2=O)CC1O` (stereo not drawn), the TGI in experiment [1], in experiment [3], in experiment [4], in experiment [5], in experiment [6] and in experiment [7] was over 100 µM throughout. In experiment [8], this molecule displayed a TGI of over 100 µM.

On to `CN(C)CCC(CCN(C)C)=NO`, for which the TGI in experiment [1], in experiment [2], in experiment [3], in experiment [4], in experiment [5] and in experiment [6] was over 100 µM in each case. This molecule also displayed a TGI in experiment [7] of over 100 µM.

As for `Oc1ccc2ccccc2c1N=Nc1cc(Cl)ccc1Cl`, the TGI in experiment [1], in experiment [2], in experiment [3], in experiment [4], in experiment [6] and in experiment [7] was over 50 µM throughout.

With `Cc1ccc(S(=O)(=O)N2CCN(C=S)CC2)cc1`, the TGI in experiment [1], in experiment [3], in experiment [4], in experiment [5], in experiment [6] and in experiment [7] was over 100 µM in each case. The TGI in experiment [8] was over 100 µM.

With `COc1ccc(C(=O)c2c3cc(OC)c(OC)c(OC)c3cc[n+]2C)cc1`, the TGI is 34.7 µM in experiment [1]; over 100 µM in experiment [3]; 35.1 µM in experiment [4]; over 100 µM in experiment [5]; over 100 µM in experiment [6]; over 100 µM in experiment [7].

For the molecule `COc1cc(CC2c3cc(OC)c(OC)cc3CCN2C)ccc1O` (stereo not drawn), the TGI in experiment [1], in experiment [2], in experiment [3], in experiment [4], in experiment [5] and in experiment [6] was over 100 µM each time. The molecule further registered a TGI in experiment [7] of over 100 µM.

As to `Cc1[nH]c2ccccc2c1CC/C(=N\Nc1ccccc1)c1ccccc1`, the TGI in experiment [1], in experiment [2], in experiment [3], in experiment [4], in experiment [5] and in experiment [6] was over 100 µM throughout.

With `O=C(Cc1nc2ccccc2o1)C(=O)Nc1cccc(Cl)c1`, the TGI in experiment [1], in experiment [2], in experiment [3], in experiment [5], in experiment [6] and in experiment [7] was over 100 µM each time.

On to `O=C1C(=C([O-])c2ccccc2)C(=O)c2ccccc21.O=C1C(=C([O-])c2ccccc2)C(=O)c2ccccc21.[Mn+2]`, for which the GI50 was over 100 µM in experiment [1]; over 100 µM in experiment [2]; 16.1 µM in experiment [4]; 72.9 µM in experiment [6]; 76.7 µM in experiment [7]; over 100 µM in experiment [8]. Besides, the TGI in experiment [1], in experiment [2], in experiment [4], in experiment [6], in experiment [7] and in experiment [8] was over 100 µM each time.
